Laboratory results published in patent US20240294489A1 (Captor Therapeutics S.A., priority 2020, published 2024).
Where two headings read alike, the source gives them in different places.

Tests used:
Format in all cases: cell-based
HL-60 = assay: Cell viability, additional cell lines (CellTiter-Glo), HL-60; conditions: Homo sapiens, HL-60, 72 h; read-out: Absolute IC50
Description: (§1) Tumor cells are grown at 37° C. in a humidified atmosphere with 5% CO2 in RPMI 1640 medium, supplemented with 10% (v/v) fetal calf serum and 50 μg/ml gentamicin for up to 20 passages, and are passaged once or twice weekly.
(§2) Cells are harvested from exponential phase cultures, counted and plated in 96 well flat-bottom microtiter plates at a cell density depending on the cell line's growth rate (4,000-20,000 cells/well depending on the cell line's growth rate, up to 60,000 for hematological cancer cell lines) in RPMI 1640 medium supplemented with 10% (v/v) fetal calf serum and 50 μg/ml gentamicin (140 μl/well). Cultures are incubated at 37° C. and 5% CO2 in a humidified atmosphere. After 24 h, 10 μl of test compounds or control medium are added and left on the cells for another 72 h. Compounds are serially diluted in DMSO, transferred in cell culture medium, and added to the assay plates by using a Tecan Freedom EVO 200 robotic platform. The DMSO concentration is kept constant at 0.3% v/v across the assay plate. Viability of cells is quantified by the CellTiter-Glo® cell viability assay (Promega G8462). After incubation of cells, 100 μl of CellTiter-Glo® One Solution Assay reagent are added to each well. Plates are shaken for 2 minutes to induce cell lysis and incubated for 20 minutes prior to reading luminescence (LU) by using the EnVision® Xcite multilabel plate reader (Perkin Elmer). […]

Ikaros (IKZF1) = target: T1, Ikaros (IKZF1) (Homo sapiens, UniProt Q13422+Q96SW2); assay: Ikaros degradation assay, H929 cell line; conditions: NCI-H929, H929 cells, 10 uM, 24 h, read-out: % of IKZF1 protein reduction
T1 construct: Ikaros degradation in the H929 cell line was investigated; endogenous in cells; host or cells: H929
Description: (§3) Cells were seeded on 6- or 12-well plates, and the compounds to be tested were added at the desired concentration range. […] After 24 h incubation (37° C., 5% CO2), cells were harvested, washed and cell lysates were prepared using RIPA lysis buffer. The amount of protein was determined via BCA assay, and the appropriate quantity was then loaded on the precast gel for the protein separation. After primary and secondary Ab staining, the membranes were washed and signals developed. The densitometry analysis was implemented to obtain the numeric values used later in the protein level evaluation process.

LP-1 = assay: Cell viability, additional cell lines (CellTiter-Glo), LP-1; conditions: Homo sapiens, LP-1, 72 h; read-out: Absolute IC50
Description: as §1, §2

OPM-2 = assay: Cell viability, additional cell lines (CellTiter-Glo), OPM-2; conditions: Homo sapiens, OPM-2, 72 h; read-out: Absolute IC50
Description: as §1, §2

H929 cells = assay: Cell viability CTG assay, H929; parameters: key to Geomean absolute IC50 by molecule, 72 H: Inactive represents IC50 > 50 μM; C represents 50 μM ≥ IC50 > 5 μM; conditions: H929, 72 h, 0.001-50 μM; for IC50: Homo sapiens, NCI-H929, numeric values, read-out: Geomean absolute IC50 by molecule, 72 H
Description: (§4) The effect of various compounds of the invention and various reference compounds on cell viability in various cell lines was investigated, using the Cell Viability—CTG Assay Protocol below. Hep3B, Kelly, H929, KG-1 and SNU-398 cells were maintained in respective cell medium (see Table 8, below). The cells were seeded on the 96-well or 384-white plates, and the compounds to be tested were added at the desired concentration range. Compounds are diluted in DMSO, and the DMSO concentration is kept constant at 0.25% v/v across the assay plate. After 72 h incubation (37° C., 5% CO2), CellTiter-Glo® Reagent (Promega/G7570) was added to the wells. Plates are shaken for 4 minutes and incubated for 8 minutes in the dark prior to reading luminescence (LU) by using the CLARIOstar Multimode Plate Reader. The signal is proportional to the amount of ATP, which is directly proportional to the number of cells present in the culture.
(§5) Luminescence (RLU) values were normalized to DMSO control. Dose response is assessed by non-linear regression and IC50 calculation with the average of technical duplicate of percentage inhibition. IC50 values are reported as absolute IC50 values, being the concentration of test compound at the intersection of the concentration-response curves with T/C=50%. For calculation of mean IC50 values the geometric mean is used.

NOMO-1 = assay: Cell viability, additional cell lines (CellTiter-Glo), NOMO-1; conditions: Homo sapiens, NOMO-1, 72 h; read-out: Absolute IC50
Description: as §1, §2

OCI-AML2 = assay: Cell viability, additional cell lines (CellTiter-Glo), OCI-AML2; conditions: Homo sapiens, OCI-AML2, 72 h; read-out: Absolute IC50
Description: as §1, §2

PL-21 = assay: Cell viability, additional cell lines (CellTiter-Glo), PL-21; conditions: PL-21, 72 h; read-out: Absolute IC50
Description: as §1, §2

SNU-398 cells = assay: Cell viability CTG assay, SNU-398; conditions: Homo sapiens; SNU-398, 72 h, 0.001-50 μM, FIG. 6C
Description: as §4, §5

U-937 = assay: Cell viability, additional cell lines (CellTiter-Glo), U-937; conditions: Homo sapiens, U-937, 72 h; read-out: Absolute IC50
Description: as §1, §2

TMD8 = assay: Cell viability, additional cell lines (CellTiter-Glo), TMD8; conditions: Homo sapiens, TMD8, 72 h; read-out: Absolute IC50
Description: as §1, §2

EOL-1 = assay: Cell viability, additional cell lines (CellTiter-Glo), EOL-1; conditions: Homo sapiens, EOL1; EOL-1, 72 h; read-out: Absolute IC50
Description: as §1, §2

IM-9 = assay: Cell viability, additional cell lines (CellTiter-Glo), IM-9; conditions: Homo sapiens, IM-9, 72 h; read-out: Absolute IC50
Description: as §1, §2

Kasumi-1 = assay: Cell viability, additional cell lines (CellTiter-Glo), Kasumi-1; conditions: Homo sapiens; Kasumi-1, 72 h; read-out: Absolute IC50
Description: as §1, §2

NCI-H929 = assay: Cell viability, additional cell lines (CellTiter-Glo), NCI-H929; conditions: Homo sapiens, NCI-H929, 72 h; read-out: Absolute IC50
Description: as §1, §2

SU-DHL-1 = assay: Cell viability, additional cell lines (CellTiter-Glo), SU-DHL-1; conditions: Homo sapiens, SU-DHL-1, 72 h; read-out: Absolute IC50
Description: as §1, §2

U-266 = assay: Cell viability, additional cell lines (CellTiter-Glo), U-266; conditions: Homo sapiens, U-266, 72 h; read-out: Absolute IC50
Description: as §1, §2

GSPT1 = target: T2, GSPT1 (Homo sapiens, UniProt P15170+Q96SW2); assay: GSPT1 degradation assay, Hep3B cell line; conditions: HEP3B cells, 24 h, read-out: % of GSPT1 protein reduction
T2 construct: GSPT1 degradation in the Hep3B cell line was investigated; endogenous in cells; host or cells: Hep3B
Description: (§6) Hep3B cells were maintained in EMEM medium, supplemented with penicillin/streptomycin and 10% Fetal Bovine Serum (FBS). Cells were seeded on 6- or 12-well plates, and the compounds to be tested were added at the desired concentration range. Final DMSO concentration was 0.25%. After 24 h incubation (37° C., 5% CO2), cells were harvested, washed and cell lysates were prepared using RIPA lysis buffer. The amount of protein was determined via BCA assay, and the appropriate quantity was then loaded on the precast gel for the protein separation. After primary and secondary Ab staining, the membranes were washed and signals developed. The densitometry analysis was implemented to obtain the numeric values used later in the protein level evaluation process. Densitometry values were normalized to the loading control and calculated as [%] of the DMSO control.

KG-1 cells = assay: Cell viability CTG assay, KG-1; conditions: Homo sapiens; KG-1, 72 h, 0.001-50 μM; read-out: KG-1 Geomean absolute IC50 by molecule, 72 H
Description: as §4, §5

Hep3B cells [1] = assay: Cell viability CTG assay, Hep3B; conditions: Homo sapiens, 72 h, 0.001-50 μM, read-out: Hep3B Geomean absolute IC50 by molecule, 72 H
Description: as §4, §5

Kelly cells [2] = assay: Cell viability CTG assay, Kelly; conditions: 72 h, 0.001-50 μM, read-out: Kelly Geomean absolute IC50 by molecule, 72 H
Description: as §4, §5

SALL4 [3] = target: T3, SALL4 (Homo sapiens, UniProt Q96SW2+Q9UJQ4); assay: SALL4 degradation assay, Kelly cell line (Western blot densitometry); conditions: Kelly cells, 100 nM, 24 h, average from n ≥ 2 experiments
T3 construct: SALL4 degradation in the Kelly cell line was investigated; endogenous in cells; host or cells: Kelly
Description: as §3

Aiolos (IKZF3) = target: T4, Aiolos (IKZF3) (Homo sapiens, UniProt Q96SW2+Q9UKT9); assay: Aiolos degradation assay, H929 cell line; conditions: H929 cells, 20 μM, 24 h
T4 construct: Aiolos degradation in the H929 cell line was investigated; endogenous in cells; host or cells: H929
Description: as §3

SALL4 [4] = target: T3, SALL4; assay: SALL4 degradation in the Kelly cell line, time course; conditions: Kelly cells, 0.1 μM, 3, 6, 12, 24, 48 and 72 h, FIG. 2
Description: as §6, with “Kelly” for “Hep3B”, “RPMI-1640” for “EMEM”, “After” for “After 24 h”, “CO2) for a specified period of time,” for “CO2),”, “process.” for “process. Densitometry values were normalized to the loading control and calculated as [%] of the DMSO control.”

Hep3B cells [5] = assay: Cell survival clonogenic assay, Hep3B; conditions: 0.1-10 μM, crystal violet staining after 9-10 days
Description: (§7) To determine the ability of a single cell to form a colony (defined as a cluster of at least 50 cells), Kelly and Hep3B cells were maintained in RPM11640 (Kelly) or EMEM (Hep3B) medium, supplemented with penicillin/streptomycin and 10% FBS. The cells were counted and seeded on the 6-well plates, at the density of 1×10^3 cells per well, the compounds to be tested were added at the desired concentration range, and the cells were cultured at 37° C./5% CO2. After colony formation (9-10 days), the cells were washed and treated with 6.0% glutaraldehyde and 0.5% crystal violet mix for 30 min., followed by rinsing with water and drying at room temperature (RT).

Kelly cells [6] = assay: Cell survival clonogenic assay, Kelly; conditions: 0.1-10 μM, crystal violet staining after 9-10 days
Description: as §7

T1 sequence (Q13422 whole entry): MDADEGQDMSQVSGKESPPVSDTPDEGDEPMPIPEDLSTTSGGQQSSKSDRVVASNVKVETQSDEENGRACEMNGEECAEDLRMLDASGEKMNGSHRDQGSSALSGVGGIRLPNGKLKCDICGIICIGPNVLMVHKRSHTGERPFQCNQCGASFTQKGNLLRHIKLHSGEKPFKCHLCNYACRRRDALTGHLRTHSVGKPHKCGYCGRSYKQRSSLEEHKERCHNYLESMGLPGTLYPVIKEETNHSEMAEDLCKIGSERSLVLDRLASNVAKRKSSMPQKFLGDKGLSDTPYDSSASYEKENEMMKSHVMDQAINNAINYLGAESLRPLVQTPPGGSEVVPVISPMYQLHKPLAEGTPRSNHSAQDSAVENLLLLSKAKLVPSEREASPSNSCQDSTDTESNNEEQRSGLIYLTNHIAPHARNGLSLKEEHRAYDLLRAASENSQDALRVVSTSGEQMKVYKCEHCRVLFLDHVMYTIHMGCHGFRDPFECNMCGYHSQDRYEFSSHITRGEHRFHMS
T1 sequence (Q96SW2 whole entry): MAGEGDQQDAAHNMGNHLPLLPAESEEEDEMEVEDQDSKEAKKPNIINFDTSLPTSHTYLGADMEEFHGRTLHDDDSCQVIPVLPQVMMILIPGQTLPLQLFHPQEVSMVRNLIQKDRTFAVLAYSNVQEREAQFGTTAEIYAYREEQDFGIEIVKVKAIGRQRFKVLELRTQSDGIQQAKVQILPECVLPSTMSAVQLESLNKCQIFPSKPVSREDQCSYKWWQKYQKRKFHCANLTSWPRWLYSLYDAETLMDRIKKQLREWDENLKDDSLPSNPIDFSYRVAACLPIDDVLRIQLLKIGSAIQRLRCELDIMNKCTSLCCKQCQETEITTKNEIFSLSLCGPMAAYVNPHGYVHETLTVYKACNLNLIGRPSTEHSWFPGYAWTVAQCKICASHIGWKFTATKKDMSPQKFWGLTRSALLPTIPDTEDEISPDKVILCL
T1 sequence (Q16531 whole entry partner): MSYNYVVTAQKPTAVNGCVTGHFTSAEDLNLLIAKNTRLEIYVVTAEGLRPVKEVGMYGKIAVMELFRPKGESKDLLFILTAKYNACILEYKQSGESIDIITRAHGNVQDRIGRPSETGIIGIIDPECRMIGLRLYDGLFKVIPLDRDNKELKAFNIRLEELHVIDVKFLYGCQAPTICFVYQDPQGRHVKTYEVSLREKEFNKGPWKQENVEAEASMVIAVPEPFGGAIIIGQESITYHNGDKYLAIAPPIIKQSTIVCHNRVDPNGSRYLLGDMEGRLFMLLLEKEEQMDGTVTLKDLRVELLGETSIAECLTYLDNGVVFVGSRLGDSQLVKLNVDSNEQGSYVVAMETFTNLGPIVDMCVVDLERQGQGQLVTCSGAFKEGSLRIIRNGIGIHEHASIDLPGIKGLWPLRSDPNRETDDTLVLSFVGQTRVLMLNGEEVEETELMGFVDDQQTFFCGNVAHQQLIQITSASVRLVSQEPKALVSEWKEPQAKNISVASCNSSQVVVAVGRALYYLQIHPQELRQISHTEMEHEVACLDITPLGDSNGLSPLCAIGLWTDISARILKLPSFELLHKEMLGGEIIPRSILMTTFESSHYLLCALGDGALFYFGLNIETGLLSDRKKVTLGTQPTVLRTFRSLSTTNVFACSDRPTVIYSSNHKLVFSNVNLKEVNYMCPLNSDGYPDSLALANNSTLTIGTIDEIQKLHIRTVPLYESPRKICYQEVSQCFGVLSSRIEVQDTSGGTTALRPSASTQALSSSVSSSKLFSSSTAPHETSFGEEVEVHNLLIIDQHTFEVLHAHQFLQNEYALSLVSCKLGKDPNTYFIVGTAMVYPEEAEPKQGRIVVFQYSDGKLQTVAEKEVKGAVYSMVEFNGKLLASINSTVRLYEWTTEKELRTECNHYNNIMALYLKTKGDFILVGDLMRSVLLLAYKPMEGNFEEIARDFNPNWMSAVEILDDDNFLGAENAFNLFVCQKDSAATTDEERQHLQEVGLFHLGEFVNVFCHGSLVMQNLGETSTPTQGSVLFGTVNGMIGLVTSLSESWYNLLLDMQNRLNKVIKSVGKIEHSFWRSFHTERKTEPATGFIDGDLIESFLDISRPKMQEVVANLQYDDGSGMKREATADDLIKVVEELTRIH
T3 sequence (Q9UJQ4 whole entry): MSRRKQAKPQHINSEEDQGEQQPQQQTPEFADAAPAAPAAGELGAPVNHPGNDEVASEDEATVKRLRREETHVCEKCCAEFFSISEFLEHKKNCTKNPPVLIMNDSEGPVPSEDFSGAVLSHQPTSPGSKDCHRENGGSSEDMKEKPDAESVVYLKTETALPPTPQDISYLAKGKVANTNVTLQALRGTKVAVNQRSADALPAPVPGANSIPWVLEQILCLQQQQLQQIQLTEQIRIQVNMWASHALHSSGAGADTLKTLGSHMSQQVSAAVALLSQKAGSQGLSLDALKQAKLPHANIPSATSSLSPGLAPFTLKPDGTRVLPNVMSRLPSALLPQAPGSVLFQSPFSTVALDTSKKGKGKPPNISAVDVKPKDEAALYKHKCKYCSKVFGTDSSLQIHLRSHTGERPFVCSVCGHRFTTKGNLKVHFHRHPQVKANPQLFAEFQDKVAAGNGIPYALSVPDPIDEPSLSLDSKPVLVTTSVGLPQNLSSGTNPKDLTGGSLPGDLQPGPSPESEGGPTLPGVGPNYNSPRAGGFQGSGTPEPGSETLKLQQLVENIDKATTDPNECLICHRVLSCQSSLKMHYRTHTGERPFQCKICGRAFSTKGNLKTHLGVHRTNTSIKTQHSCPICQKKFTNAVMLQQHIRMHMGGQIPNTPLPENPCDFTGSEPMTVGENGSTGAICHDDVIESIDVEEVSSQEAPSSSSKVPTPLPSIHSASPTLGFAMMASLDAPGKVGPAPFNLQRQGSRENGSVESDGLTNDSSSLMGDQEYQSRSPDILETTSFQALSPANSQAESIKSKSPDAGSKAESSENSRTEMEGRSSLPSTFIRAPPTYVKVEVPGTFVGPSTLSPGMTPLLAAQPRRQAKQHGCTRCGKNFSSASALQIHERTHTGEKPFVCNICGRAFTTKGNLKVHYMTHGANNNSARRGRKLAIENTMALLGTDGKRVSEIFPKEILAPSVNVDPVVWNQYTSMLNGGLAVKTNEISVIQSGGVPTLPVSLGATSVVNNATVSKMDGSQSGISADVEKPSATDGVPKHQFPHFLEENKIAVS
T3 sequence (Q96SW2 whole entry): as the sequence (Q96SW2 whole entry) above
T3 sequence (Q16531 whole entry partner): as the sequence (Q16531 whole entry partner) above
T2 sequence (P15170 whole entry): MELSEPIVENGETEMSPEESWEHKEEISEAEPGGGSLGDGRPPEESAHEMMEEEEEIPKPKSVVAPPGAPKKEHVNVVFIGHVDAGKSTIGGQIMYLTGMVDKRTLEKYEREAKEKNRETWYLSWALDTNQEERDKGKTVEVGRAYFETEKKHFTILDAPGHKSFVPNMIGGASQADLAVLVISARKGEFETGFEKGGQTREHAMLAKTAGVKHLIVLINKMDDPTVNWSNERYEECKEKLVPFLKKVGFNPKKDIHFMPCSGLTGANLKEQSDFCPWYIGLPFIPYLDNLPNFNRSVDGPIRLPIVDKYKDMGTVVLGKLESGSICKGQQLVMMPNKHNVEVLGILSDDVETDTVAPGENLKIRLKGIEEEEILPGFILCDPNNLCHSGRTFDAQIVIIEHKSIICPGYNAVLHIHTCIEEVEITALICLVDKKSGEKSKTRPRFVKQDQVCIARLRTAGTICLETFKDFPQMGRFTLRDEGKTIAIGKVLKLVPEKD
T2 sequence (Q96SW2 whole entry): as the sequence (Q96SW2 whole entry) above
T2 sequence (Q16531 whole entry partner): as the sequence (Q16531 whole entry partner) above
T4 sequence (Q9UKT9 whole entry): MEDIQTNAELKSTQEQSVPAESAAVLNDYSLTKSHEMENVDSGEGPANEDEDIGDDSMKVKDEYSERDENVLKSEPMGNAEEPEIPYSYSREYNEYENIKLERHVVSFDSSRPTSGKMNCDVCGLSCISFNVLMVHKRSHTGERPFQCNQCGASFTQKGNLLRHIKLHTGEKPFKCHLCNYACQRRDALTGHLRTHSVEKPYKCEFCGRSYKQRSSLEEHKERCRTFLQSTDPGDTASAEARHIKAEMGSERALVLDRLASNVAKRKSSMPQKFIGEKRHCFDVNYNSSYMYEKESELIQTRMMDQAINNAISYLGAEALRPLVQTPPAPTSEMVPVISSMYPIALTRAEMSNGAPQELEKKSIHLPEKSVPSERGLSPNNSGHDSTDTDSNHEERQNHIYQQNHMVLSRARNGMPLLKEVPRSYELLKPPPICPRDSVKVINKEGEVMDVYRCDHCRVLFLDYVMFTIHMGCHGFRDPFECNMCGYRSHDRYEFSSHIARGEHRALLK
T4 sequence (Q96SW2 whole entry): as the sequence (Q96SW2 whole entry) above
T4 sequence (Q16531 whole entry partner): as the sequence (Q16531 whole entry partner) above

O=C1CCC(N2Cc3cc(CNC(=O)C(F)(F)c4ccc(Cl)cc4)ccc3C2=O)C(=O)N1 (stereo not drawn) [CC-90009, reference compound]
IC50 (HL-60): 3 nM | inhibition at 10 µM (Ikaros (IKZF1); numeric values): 33% | IC50 (LP-1): 28 nM | IC50 (OPM-2): 74 nM | IC50 (H929 cells): 189 nM | IC50 (NOMO-1): 40 nM | IC50 (OCI-AML2): 18 nM | IC50 (PL-21): 10 nM | IC50 (SNU-398 cells): > 9900 nM | IC50 (U-937): 78 nM | IC50 (TMD8): 264 nM | IC50 (EOL-1): 2 nM | IC50 (IM-9): 85 nM | IC50 (Kasumi-1): 35 nM | IC50 (NCI-H929): 399 nM | IC50 (SU-DHL-1): 153 nM | IC50 (U-266): 56 nM

NCc1cc2c(cc1F)C(=O)N(C1CCC(=O)NC1=O)C2 (stereo not drawn) [Compound 3, 3-[5-(aminomethyl)-6-fluoro-1-oxo-2,3-dihydro-1H-isoindol-2-yl]piperidine-2,6-dione]
inhibition at 10 µM (Ikaros (IKZF1)): 0 to 24% | inhibition at 10 µM (GSPT1; 10 uM): 80 to 100% | Geomean absolute IC50 by molecule, 72 H (H929 cells): Inactive | IC50 (KG-1 cells): ≤ 100 nM | IC50 (Hep3B cells [1]): ≤ 100 nM | IC50 (Kelly cells [2]): ≤ 100 nM | IC50 (SNU-398 cells): 82 nM

N[C@@H](Cc1cnc[nH]1)C(=O)NCc1ccc2c(c1)CN([C@@H]1CCC(=O)NC1=O)C2=O [Compound 27, (S)-2-amino-N-((2-((R)-2,6-dioxopiperidin-3-yl)-1-oxoisoindolin-5-yl)methyl)-3-(1H-imidazol-4-yl)propanamide]
inhibition at 10 µM (Ikaros (IKZF1)): 0 to 24% | inhibition at 1 µM (GSPT1): 80 to 100% | % of SALL4 protein reduction (SALL4 [3]): >80% | Geomean absolute IC50 by molecule, 72 H (H929 cells): Inactive | IC50 (KG-1 cells): 100 to 1000 nM | % of IKZF3 protein reduction (Aiolos (IKZF3)): C (C represents 0-24% of IKZF1 protein reduction) | IC50 (Hep3B cells [1]): 100 to 1000 nM | IC50 (Kelly cells [2]): 100 to 1000 nM

Nc1c(O)ccc2c1C(=O)N(C1CCC(=O)NC1=O)C2=O (stereo not drawn) [Compound 44, 4-amino-2-(2,6-dioxopiperidin-3-yl)-5-hydroxyisoindoline-1,3-dione]
inhibition at 10 µM (Ikaros (IKZF1)): 0 to 24% | inhibition at 1 µM (GSPT1): 50 to 79% | % of SALL4 protein reduction (SALL4 [3]): >80% | SALL4 degradation time course (SALL4 [4]): more rapidly and effectively than lenalidomide

Nc1cccc2c1CN(C1CCC(=O)NC1=O)C2=O (stereo not drawn) [Lenalidomide, lenalidomide, reference compound]
IC50 (H929 cells): 433 nM | survival of the cells (colony formation) (Hep3B cells [5]): no activity | survival of the cells (colony formation) (Kelly cells [6]): no activity
